Assay results: ChEMBL document CHEMBL1201861, “Genomics of Drug Sensitity in Cancer screening data, Wellcome Trust Sanger Institute”

Columns and labels:
COR-L23 = assay: cells; assay type: functional, cell-based; conditions: Homo sapiens;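 also: cell viability assay measuring how strongly compounds suppress growth of COR-L23 cells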
Description: SANGER: Inhibition of human COR-L23 cell growth in a cell viability assay.

CaR-1 = assay: cells; assay type: functional, cell-based; conditions: Homo sapiens;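 also: growth inhibition of human CaR-1 cancer cells, read out with a cell viability assay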
Description: SANGER: Inhibition of human CaR-1 cell growth in a cell viability assay.

DK-MG = assay: cells; assay type: functional, cell-based; conditions: Homo sapiens;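 also: growth inhibition of DK-MG cells, read out with a cell viability assay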
Description: SANGER: Inhibition of human DK-MG cell growth in a cell viability assay.

EB-3 = assay: cells; assay type: functional, cell-based, Homo sapiens; conditions: Homo sapiens, EB-3;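 also: human EB-3 cells, growth inhibition read out via a cell viability assay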
Description: SANGER: Inhibition of human EB-3 cell growth in a cell viability assay.

EB2 = assay: cells; assay type: functional, cell-based, Homo sapiens; conditions: Homo sapiens, EB2;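 also: growth inhibition of EB2 cells, read out with a cell viability assay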
Description: SANGER: Inhibition of human EB2 cell growth in a cell viability assay.

EC-GI-10 = assay: cells; assay type: functional, cell-based, Homo sapiens; conditions: Homo sapiens, EC-GI-10
Description: SANGER: Inhibition of human EC-GI-10 cell growth in a cell viability assay.

EW-24 = assay: cells; assay type: functional, cell-based, Homo sapiens; conditions: Homo sapiens, EW-24;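 also: human EW-24 cancer cell line, growth inhibition read out via a cell viability assay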
Description: SANGER: Inhibition of human EW-24 cell growth in a cell viability assay.

GP5d = assay: cells; assay type: functional, cell-based; conditions: Homo sapiens;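 also: growth inhibition of human GP5d cells, read out with a cell viability assay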
Description: SANGER: Inhibition of human GP5d cell growth in a cell viability assay.

HCC1599 = assay: cells; assay type: functional, cell-based, Homo sapiens; conditions: Homo sapiens, HCC1599;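 also: growth inhibition of HCC1599 cells, read out in a cell viability assay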
Description: SANGER: Inhibition of human HCC1599 cell growth in a cell viability assay.

HCC38 = assay: cells; assay type: functional, cell-based; conditions: Homo sapiens;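 also: cell viability assay on the human HCC38 cell line, with IC50 marking the concentration that inhibits cell growth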
Description: SANGER: Inhibition of human HCC38 cell growth in a cell viability assay.

HCT-15 = assay: cells; assay type: functional, cell-based; conditions: Homo sapiens;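 also: cell viability readout, IC50 reflecting suppression of HCT-15 cell growth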
Description: SANGER: Inhibition of human HCT-15 cell growth in a cell viability assay.

HEC-1 = assay: cells; assay type: functional, cell-based; conditions: Homo sapiens;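 also: growth inhibition of the cell line, read out with a cell viability assay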
Description: SANGER: Inhibition of human HEC-1 cell growth in a cell viability assay.

HOS = assay: cells; assay type: functional, cell-based; conditions: Homo sapiens;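 also: growth inhibition of human HOS cells, read out with a cell viability assay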
Description: SANGER: Inhibition of human HOS cell growth in a cell viability assay.

HT1197 = assay: cells; assay type: functional, cell-based, HT-1197; conditions: Homo sapiens
Description: SANGER: Inhibition of human HT-1197 cell growth in a cell viability assay.

IST-SL2 = assay: cells; assay type: functional, cell-based, Homo sapiens; conditions: Homo sapiens, IST-SL2;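 also: growth inhibition of human IST-SL2 cells, read out by a cell viability assay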
Description: SANGER: Inhibition of human IST-SL2 cell growth in a cell viability assay.

KARPAS-422 = assay: cells; assay type: functional, cell-based, Homo sapiens; conditions: Homo sapiens, KARPAS-422
Description: SANGER: Inhibition of human KARPAS-422 cell growth in a cell viability assay.

KYSE-140 = assay: cells; assay type: functional, cell-based; conditions: Homo sapiens;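 also: cell viability assay measuring growth inhibition in human KYSE-140 cells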
Description: SANGER: Inhibition of human KYSE-140 cell growth in a cell viability assay.

KYSE-450 = assay: cells; assay type: functional, cell-based; conditions: Homo sapiens;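 also: cell growth inhibition measured by a viability assay in human KYSE-450 cells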
Description: SANGER: Inhibition of human KYSE-450 cell growth in a cell viability assay.

KYSE-520 cell line = assay: cells; assay type: functional, cell-based; conditions: Homo sapiens;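 also: growth inhibition of human KYSE-520 cells, read out with a viability assay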
Description: SANGER: Inhibition of human KYSE-520 cell growth in a cell viability assay.

KYSE-70 cell line = assay: cells; assay type: functional, cell-based; conditions: Homo sapiens;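 also: cell viability assay read-out, with IC50 expressing suppression of KYSE-70 cell growth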
Description: SANGER: Inhibition of human KYSE-70 cell growth in a cell viability assay.

L-540 = assay: cells; assay type: functional, cell-based, Homo sapiens; conditions: Homo sapiens, L-540;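 also: growth inhibition of the human L-540 cell line, read out with a viability assay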
Description: SANGER: Inhibition of human L-540 cell growth in a cell viability assay.

LP-1 = assay: cells; assay type: functional, cell-based, Homo sapiens; conditions: Homo sapiens, LP-1;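 also: growth inhibition of human LP-1 cells, with the read-out taken from a cell viability assay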
Description: SANGER: Inhibition of human LP-1 cell growth in a cell viability assay.

LU-99A = assay: cells; assay type: functional, cell-based; conditions: Homo sapiens;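 also: growth inhibition of LU-99A cells, read out with a cell viability assay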
Description: SANGER: Inhibition of human LU-99A cell growth in a cell viability assay.

MRK-nu-1 = assay: cells; assay type: functional, cell-based, Homo sapiens; conditions: Homo sapiens, MRK-nu-1;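 also: cell viability assay measuring growth suppression of human MRK-nu-1 cells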
Description: SANGER: Inhibition of human MRK-nu-1 cell growth in a cell viability assay.

NCCIT = assay: SANGER: Inhibition of human NCCIT cell growth in a cell viability assay.; assay type: functional, cell-based; conditions: Homo sapiens, NCCIT
NCI-H1522 = assay: cells; assay type: functional, cell-based, Homo sapiens; conditions: Homo sapiens, NCI-H1522;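 also: growth inhibition of NCI-H1522 cells, read out with a cell viability assay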
Description: SANGER: Inhibition of human NCI-H1522 cell growth in a cell viability assay.

NCI-H2081 = assay: cells; assay type: functional, cell-based, Homo sapiens; conditions: Homo sapiens, NCI-H2081;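 also: growth inhibition of human NCI-H2081 cells, read out with a cell viability assay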
Description: SANGER: Inhibition of human NCI-H2081 cell growth in a cell viability assay.

NCI-H2087 = assay: cells; assay type: functional, cell-based; conditions: Homo sapiens;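 also: growth inhibition determined with a cell viability readout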
Description: SANGER: Inhibition of human NCI-H2087 cell growth in a cell viability assay.

NCI-H322M = assay: cells; assay type: functional, cell-based, Homo sapiens; conditions: Homo sapiens, NCI-H322M;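 also: cell viability assay measuring inhibition of growth of human NCI-H322M cells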
Description: SANGER: Inhibition of human NCI-H322M cell growth in a cell viability assay.

NCI-H64 = assay: cells; assay type: functional, cell-based, Homo sapiens; conditions: Homo sapiens, NCI-H64;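 also: growth inhibition of NCI-H64 cells, read out with a cell viability assay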
Description: SANGER: Inhibition of human NCI-H64 cell growth in a cell viability assay.

NCI-H727 = assay: cells; assay type: functional, cell-based; conditions: Homo sapiens;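 also: growth inhibition of human NCI-H727 cells, read out with a cell viability assay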
Description: SANGER: Inhibition of human NCI-H727 cell growth in a cell viability assay.

SNU-16 = assay: cells; assay type: functional, cell-based, Homo sapiens; conditions: Homo sapiens, SNU-16;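 also: growth inhibition of human SNU-16 cells, determined with a cell viability readout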
Description: SANGER: Inhibition of human NCI-SNU-16 cell growth in a cell viability assay.

P12-Ichikawa = assay: cells; assay type: functional, cell-based; conditions: Homo sapiens
PC-14 = assay: cells; assay type: functional, cell-based; conditions: Homo sapiens;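 also: cell viability assay measuring inhibition of PC-14 cell growth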
Description: SANGER: Inhibition of human PC-14 cell growth in a cell viability assay.

PFSK-1 = assay: cells; assay type: functional, cell-based; conditions: Homo sapiens;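 also: cell viability assay measuring how strongly compounds suppress growth of human PFSK-1 cells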
Description: SANGER: Inhibition of human PFSK-1 cell growth in a cell viability assay.

RERF-LC-MS = assay: cells; assay type: functional, cell-based; conditions: Homo sapiens;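 also: growth inhibition of human RERF-LC-MS cells, read out by a cell viability assay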
Description: SANGER: Inhibition of human RERF-LC-MS cell growth in a cell viability assay.

RVH-421 = assay: cells; assay type: functional, cell-based; conditions: Homo sapiens
Description: SANGER: Inhibition of human RVH-421 cell growth in a cell viability assay.

SCC-4 = assay: cells; assay type: functional, cell-based; conditions: Homo sapiens;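 also: growth inhibition of human SCC-4 cells, read out as cell viability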
Description: SANGER: Inhibition of human SCC-4 cell growth in a cell viability assay.

SCC-9 = assay: cells; assay type: functional, cell-based; conditions: Homo sapiens;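 also: Read-out is a cell viability assay, with values giving inhibition of cell growth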
Description: SANGER: Inhibition of human SCC-9 cell growth in a cell viability assay.

SK-MEL-28 = assay: cells; assay type: functional, cell-based; conditions: Homo sapiens;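 also: growth inhibition of human SK-MEL-28 cells, read out with a cell viability assay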
Description: SANGER: Inhibition of human SK-MEL-28 cell growth in a cell viability assay.

SK-MEL-30 = assay: cells; assay type: functional, cell-based; conditions: Homo sapiens;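 also: growth inhibition of SK-MEL-30 cells, determined with a cell viability assay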
Description: SANGER: Inhibition of human SK-MEL-30 cell growth in a cell viability assay.

SNU-423 = assay: cells; assay type: functional, cell-based; conditions: Homo sapiens
Description: SANGER: Inhibition of human SNU-423 cell growth in a cell viability assay.

SNU-449 = assay: cells; assay type: functional, cell-based; conditions: Homo sapiens
Description: SANGER: Inhibition of human SNU-449 cell growth in a cell viability assay.

SW13 = assay: cells; assay type: functional, cell-based; conditions: Homo sapiens;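 also: IC50 is inhibition of SW13 cell growth, read out with a cell viability assay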
Description: SANGER: Inhibition of human SW13 cell growth in a cell viability assay.

SW948 = assay: cells; assay type: functional, cell-based; conditions: Homo sapiens;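 also: growth inhibition of SW948 cells, read out with a cell viability assay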
Description: SANGER: Inhibition of human SW948 cell growth in a cell viability assay.

8305C = assay: cells; assay type: functional, cell-based; conditions: Homo sapiens
Description: SANGER: Inhibition of human 8305C cell growth in a cell viability assay.

A-375 = assay: cells; assay type: functional, cell-based; conditions: Homo sapiens;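 also: growth inhibition of A375 cells, read out with a cell viability assay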
Description: SANGER: Inhibition of human A375 cell growth in a cell viability assay.

A-431 = assay: cells; assay type: functional, cell-based; conditions: Homo sapiens;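 also: growth inhibition of A-431 cells, determined with a cell viability read-out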
Description: SANGER: Inhibition of human A431 cell growth in a cell viability assay.

AU565 = assay: cells; assay type: functional, cell-based; conditions: Homo sapiens;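 also: cell viability assay measuring growth inhibition of human AU565 cells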
Description: SANGER: Inhibition of human AU565 cell growth in a cell viability assay.

BL-41 = assay: cells; assay type: functional, cell-based; conditions: Homo sapiens;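 also: growth inhibition of human BL-41 cells, read out with a cell viability assay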
Description: SANGER: Inhibition of human BL-41 cell growth in a cell viability assay.

BT-20 = assay: cells; assay type: functional, cell-based; conditions: Homo sapiens;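 also: cell viability assay measuring suppression of growth in human BT-20 cells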
Description: SANGER: Inhibition of human BT-20 cell growth in a cell viability assay.

C-33-A = assay: cells; assay type: functional, cell-based; conditions: Homo sapiens;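 also: cell viability assay measuring growth inhibition of C-33-A cells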
Description: SANGER: Inhibition of human C-33-A cell growth in a cell viability assay.

CAL-27 = assay: cells; assay type: functional, cell-based; conditions: Homo sapiens;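 also: Viability-based readout, IC50 reflecting inhibition of CAL-27 cell growth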
Description: SANGER: Inhibition of human CAL-27 cell growth in a cell viability assay.

CAL-39 = assay: cells; assay type: functional, cell-based; conditions: Homo sapiens;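 also: cell viability assay measuring growth inhibition of CAL-39 cells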
Description: SANGER: Inhibition of human CAL-39 cell growth in a cell viability assay.

TE-441-T = assay: cells; assay type: functional, cell-based, Homo sapiens; conditions: Homo sapiens, TE-441-T
Description: SANGER: Inhibition of human TE-441-T cell growth in a cell viability assay.

CHL-1 = assay: cells; assay type: functional, cell-based; conditions: Homo sapiens;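 also: cell growth inhibition, read out with a cell viability assay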
Description: SANGER: Inhibition of human CHL-1 cell growth in a cell viability assay.

What does the source list for `CCCCCCCCCCCC1=C(O)C(=O)C=C(O)C1=O` [EMBELIN]?
IC50 (COR-L23): 9.63 µM; IC50 (CaR-1): > 32 µM; IC50 (DK-MG): > 32 µM; IC50 (EB-3): 20.8 µM; IC50 (EB2): 6.17 µM; IC50 (EC-GI-10): > 32 µM; IC50 (EW-24): > 32 µM; IC50 (GP5d): 8.6 µM; IC50 (HCC1599): 9.04 µM; IC50 (HCC38): 17.9 µM; IC50 (HCT-15): 9.25 µM; IC50 (HEC-1): 13 µM; IC50 (HOS): 15.3 µM; IC50 (HT1197): 25.3 µM; IC50 (IST-SL2): > 32 µM; IC50 (KARPAS-422): 20.7 µM; IC50 (KYSE-140): 5.04 µM; IC50 (KYSE-450): 17.7 µM; IC50 (KYSE-520 cell line): 18.5 µM; IC50 (KYSE-70 cell line): 15.1 µM; IC50 (L-540): 8.42 µM; IC50 (LP-1): > 32 µM; IC50 (LU-99A): > 32 µM; IC50 (MRK-nu-1): 12.9 µM; IC50 (NCCIT): 19.2 µM; IC50 (NCI-H1522): 30.6 µM; IC50 (NCI-H2081): > 32 µM; IC50 (NCI-H2087): 5.45 µM; IC50 (NCI-H322M): > 32 µM; IC50 (NCI-H64): > 32 µM; IC50 (NCI-H727): 7.88 µM; IC50 (SNU-16): > 32 µM; IC50 (P12-Ichikawa): 9.45 µM; IC50 (PC-14): 15.6 µM; IC50 (PFSK-1): 14 µM; IC50 (RERF-LC-MS): 30.6 µM; IC50 (RVH-421): 11.5 µM; IC50 (SCC-4): 17.4 µM; IC50 (SCC-9): > 32 µM; IC50 (SK-MEL-28): 8.48 µM; IC50 (SK-MEL-30): 12.8 µM; IC50 (SNU-423): > 32 µM; IC50 (SNU-449): 16.5 µM; IC50 (SW13): 12.6 µM; IC50 (SW948): > 32 µM; IC50 (8305C): 25.7 µM; IC50 (A-375): 3.57 µM; IC50 (A-431): 5.76 µM; IC50 (AU565): 9.91 µM; IC50 (BL-41): 5.5 µM; IC50 (BT-20): 14.5 µM; IC50 (C-33-A): > 32 µM; IC50 (CAL-27): 13.1 µM; IC50 (CAL-39): 4.48 µM; IC50 (TE-441-T): > 32 µM; IC50 (CHL-1): 4.7 µM

For `COc1ccc(-c2cc3nccn3c(Nc3ncccc3C(N)=O)n2)cc1OC`, which IC50 (COR-L23) is on record?
The IC50 was 2.38 µM.

And the IC50 (CaR-1)?
The IC50 was greater than 8 µM.

And the IC50 (DK-MG)?
Its IC50 is greater than 8 µM.

What about the IC50 (EB-3) of the same compound?
The IC50 was greater than 8 µM.

And the IC50 (EB2)?
Its IC50 is 0.837 µM.

And the IC50 (EC-GI-10)?
The IC50 was greater than 8 µM.

And the IC50 (EW-24)?
The IC50 was greater than 8 µM.

And the IC50 (GP5d)?
The IC50 was greater than 8 µM.

What about the IC50 (HCC1599) of the same compound?
Its IC50 is 2.69 µM.

What about the IC50 (HCC38) of the same compound?
Its IC50 is greater than 8 µM.

And the IC50 (HCT-15)?
The IC50 was 6.64 µM.

What about the IC50 (HEC-1) of the same compound?
Its IC50 is greater than 8 µM.

And the IC50 (HOS)?
Its IC50 is 3.32 µM.

And the IC50 (HT1197)?
The IC50 was greater than 8 µM.

And the IC50 (IST-SL2)?
Its IC50 is 1.07 µM.

What about the IC50 (KARPAS-422) of the same compound?
The IC50 was 2.5 µM.

And the IC50 (KYSE-140)?
The IC50 was 3.75 µM.

And the IC50 (KYSE-450)?
Its IC50 is 2.32 µM.

And the IC50 (KYSE-520 cell line)?
The IC50 was greater than 8 µM.

What about the IC50 (KYSE-70 cell line) of the same compound?
Its IC50 is greater than 8 µM.

And the IC50 (L-540)?
Its IC50 is greater than 8 µM.

And the IC50 (LP-1)?
The IC50 was 4.02 µM.

What about the IC50 (LU-99A) of the same compound?
Its IC50 is greater than 8 µM.

And the IC50 (MRK-nu-1)?
The IC50 was 2.91 µM.

What about the IC50 (NCCIT) of the same compound?
Its IC50 is 2.36 µM.

What about the IC50 (NCI-H1522) of the same compound?
The IC50 was greater than 8 µM.

And the IC50 (NCI-H2081)?
Its IC50 is greater than 8 µM.

And the IC50 (NCI-H2087)?
Its IC50 is 2.79 µM.

And the IC50 (NCI-H322M)?
Its IC50 is greater than 8 µM.

What about the IC50 (NCI-H64) of the same compound?
The IC50 was 2.16 µM.

What about the IC50 (NCI-H727) of the same compound?
The IC50 was 6.15 µM.

What about the IC50 (SNU-16) of the same compound?
Its IC50 is greater than 8 µM.

And the IC50 (P12-Ichikawa)?
Its IC50 is 4.37 µM.

What about the IC50 (PC-14) of the same compound?
Its IC50 is greater than 8 µM.

And the IC50 (PFSK-1)?
The IC50 was 7.19 µM.

And the IC50 (RERF-LC-MS)?
The IC50 was greater than 8 µM.

And the IC50 (RVH-421)?
Its IC50 is greater than 8 µM.

And the IC50 (SCC-4)?
The IC50 was greater than 8 µM.

And the IC50 (SCC-9)?
Its IC50 is greater than 8 µM.

What about the IC50 (SK-MEL-28) of the same compound?
The IC50 was greater than 8 µM.

What about the IC50 (SK-MEL-30) of the same compound?
The IC50 was greater than 8 µM.

And the IC50 (SNU-423)?
Its IC50 is greater than 8 µM.

What about the IC50 (SNU-449) of the same compound?
The IC50 was greater than 8 µM.

And the IC50 (SW13)?
The IC50 was greater than 8 µM.

And the IC50 (SW948)?
The IC50 was greater than 8 µM.

What about the IC50 (8305C) of the same compound?
The IC50 was 2.42 µM.

What about the IC50 (A-375) of the same compound?
Its IC50 is 1.27 µM.

And the IC50 (A-431)?
The IC50 was 1.73 µM.

What about the IC50 (AU565) of the same compound?
The IC50 was 7.15 µM.

And the IC50 (BL-41)?
Its IC50 is 1.39 µM.

What about the IC50 (BT-20) of the same compound?
The IC50 was greater than 8 µM.

What about the IC50 (C-33-A) of the same compound?
Its IC50 is 2.53 µM.

And the IC50 (CAL-27)?
Its IC50 is 4.59 µM.

What about the IC50 (CAL-39) of the same compound?
Its IC50 is 3.57 µM.

And the IC50 (TE-441-T)?
The IC50 was 3.96 µM.

What about the IC50 (CHL-1) of the same compound?
Its IC50 is 4.05 µM.
